melting point: 223 °C
SMILES: CC(C)n1c(=O)n(C(=O)NCC2CCN(CC3(C(=O)O)CCOCC3)CC2)c2ccccc21 [Example 1, 4-{[4-({[(3-isopropyl-2-oxo-2,3-dihydro-1H-benzimidazol-1-yl)carbonyl]amino}methyl)piperidin-1-yl]methyl}tetrahydro-2H-pyran-4-carboxylic acid]

Reference: US7705020B2, “Benzimidazolone carboxylic acid derivatives” (Pfizer Inc., priority 2004, dated 2010)
